Test results reported in US9693556B2, “Herbicidal pyridazinone derivatives” (SYNGENTA LIMITED, priority 2011, dated 2017).

How the values were obtained:
Format in all cases: in vivo
[1] = test system: Alopecurus myosuroides (ALOMY); experiment: Pre-emergence herbicidal glasshouse test on Alopecurus myosuroides; conditions: pre-emergence; 1000 g/h; evaluated after 13 days
Outline: (§1)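 Pre-emergence treatment came one day after sowing, post-emergence treatment after eight days' growth; both used 1000 g/h in a 0.5% Tween 20 acetone/water vehicle. Percent damage, scored 1–5, was read 13 days later.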

Setaria faberi (SETFA) [2] = experiment: Pre-emergence herbicidal glasshouse test on Setaria faberi; conditions: pre-emergence; 1000 g/h; evaluated after 13 days
Outline: as §1

[3] = test system: Echinochloa crus-galli (ECHCG); experiment: Pre-emergence herbicidal glasshouse test on Echinochloa crus-galli; conditions: pre-emergence; 1000 g/h; evaluated after 13 days
Outline: as §1

Solanum nigrum (SOLNI) [4] = experiment: Pre-emergence herbicidal glasshouse test on Solanum nigrum; conditions: pre-emergence; 1000 g/h; evaluated after 13 days
Outline: as §1

[5] = test system: Amaranthus retoflexus (AMARE); experiment: Pre-emergence herbicidal glasshouse test on Amaranthus retoflexus; conditions: pre-emergence; 1000 g/h; evaluated after 13 days
Outline: as §1

[6] = test system: Ipomoea hederacea (IPOHE); experiment: Pre-emergence herbicidal glasshouse test on Ipomoea hederacea; conditions: pre-emergence; 1000 g/h; evaluated after 13 days
Outline: as §1

[7] = test system: Alopecurus myosuroides (ALOMY); experiment: Post-emergence herbicidal glasshouse test on Alopecurus myosuroides; conditions: post-emergence; 1000 g/h; evaluated after 13 days
Outline: as §1

Setaria faberi (SETFA) [8] = experiment: Post-emergence herbicidal glasshouse test on Setaria faberi; conditions: post-emergence; 1000 g/h; evaluated after 13 days
Outline: as §1

[9] = test system: Echinochloa crus-galli (ECHCG); experiment: Post-emergence herbicidal glasshouse test on Echinochloa crus-galli; conditions: post-emergence; 1000 g/h; evaluated after 13 days
Outline: as §1

Solanum nigrum (SOLNI) [10] = experiment: Post-emergence herbicidal glasshouse test on Solanum nigrum; conditions: post-emergence; 1000 g/h; evaluated after 13 days
Outline: as §1

[11] = test system: Amaranthus retoflexus (AMARE); experiment: Post-emergence herbicidal glasshouse test on Amaranthus retoflexus; conditions: post-emergence; 1000 g/h; evaluated after 13 days
Outline: as §1

[12] = test system: Ipomoea hederacea (IPOHE); experiment: Post-emergence herbicidal glasshouse test on Ipomoea hederacea; conditions: post-emergence; 1000 g/h; evaluated after 13 days
Outline: as §1

Structure (SMILES)	PRE Application ALOMY herbicidal damage (five point scale) [1]	PRE Application SETFA herbicidal damage (five point scale) (Setaria faberi (SETFA) [2])	PRE Application ECHCG herbicidal damage (five point scale) [3]	PRE Application SOLNI herbicidal damage (five point scale) (Solanum nigrum (SOLNI) [4])	PRE Application AMARE herbicidal damage (five point scale) [5]	PRE Application IPOHE herbicidal damage (five point scale) [6]	POST Application ALOMY herbicidal damage (five point scale) [7]	POST Application SETFA herbicidal damage (five point scale) (Setaria faberi (SETFA) [8])	POST Application ECHCG herbicidal damage (five point scale) [9]	POST Application SOLNI herbicidal damage (five point scale) (Solanum nigrum (SOLNI) [10])	POST Application AMARE herbicidal damage (five point scale) [11]	POST Application IPOHE herbicidal damage (five point scale) [12]
COCc1nc(C(F)(F)F)ccc1-c1cnn(C)c(=O)c1O [Compound 1.073]	5 (5=80-100% damage)	5 (5=80-100% damage)	5 (5=80-100% damage)	5 (5=80-100% damage)	5 (5=80-100% damage)	2 (2=20-39% damage)	4 (4=60-79% damage)	5 (5=80-100% damage)	5 (5=80-100% damage)	5 (5=80-100% damage)	5 (5=80-100% damage)	5 (5=80-100% damage)
Cn1ncc(-n2ccc(C(F)(F)F)c(-c3cccc(C(F)(F)F)c3)c2=O)c(O)c1=O [Compound 7.018]	5 (5=80-100% damage)	5 (5=80-100% damage)	5 (5=80-100% damage)	5 (5=80-100% damage)	5 (5=80-100% damage)	2 (2=20-39% damage)	5 (5=80-100% damage)	5 (5=80-100% damage)	5 (5=80-100% damage)	5 (5=80-100% damage)	5 (5=80-100% damage)	3 (3=40-59% damage)
Cn1ncc(-n2ccc(C(F)(F)F)c(-c3ccc([N+](=O)[O-])cc3)c2=O)c(O)c1=O [Compound 7.009]	5 (5=80-100% damage)	5 (5=80-100% damage)	5 (5=80-100% damage)	5 (5=80-100% damage)	5 (5=80-100% damage)	4 (4=60-79% damage)	5 (5=80-100% damage)	5 (5=80-100% damage)	5 (5=80-100% damage)	5 (5=80-100% damage)	5 (5=80-100% damage)	5 (5=80-100% damage)
Cn1ncc(-c2ccc(C(F)(F)F)n(-c3cccc(C(F)(F)F)n3)c2=O)c(O)c1=O [Compound 9.001]	3 (3=40-59% damage)	1 (1=0-19% damage)	2 (2=20-39% damage)	1 (1=0-19% damage)	2 (2=20-39% damage)	1 (1=0-19% damage)	4 (4=60-79% damage)	4 (4=60-79% damage)	4 (4=60-79% damage)	4 (4=60-79% damage)	3 (3=40-59% damage)	1 (1=0-19% damage)
Cn1ncc(-c2ccc(C(F)(F)F)cc2C(F)(F)F)c(O)c1=O [Compound 1.033]	1 (1=0-19% damage)	1 (1=0-19% damage)	2 (2=20-39% damage)	5 (5=80-100% damage)	5 (5=80-100% damage)	1 (1=0-19% damage)	2 (2=20-39% damage)	1 (1=0-19% damage)	2 (2=20-39% damage)	5 (5=80-100% damage)	5 (5=80-100% damage)	5 (5=80-100% damage)
Cn1ncc(-n2ccc(C(F)(F)F)c(-c3cccc(Cl)c3Cl)c2=O)c(O)c1=O [Compound 7.029]	2 (2=20-39% damage)	1 (1=0-19% damage)	2 (2=20-39% damage)	5 (5=80-100% damage)	5 (5=80-100% damage)	1 (1=0-19% damage)	3 (3=40-59% damage)	2 (2=20-39% damage)	5 (5=80-100% damage)	5 (5=80-100% damage)	5 (5=80-100% damage)	4 (4=60-79% damage)
Cn1ncc(-n2ccc(C(F)(F)F)c(-c3cncnc3)c2=O)c(O)c1=O [Compound 1.024]	1 (1=0-19% damage)	1 (1=0-19% damage)	2 (2=20-39% damage)	1 (1=0-19% damage)	5 (5=80-100% damage)	4 (4=60-79% damage)	1 (1=0-19% damage)	3 (3=40-59% damage)	2 (2=20-39% damage)	5 (5=80-100% damage)	5 (5=80-100% damage)	4 (4=60-79% damage)
Cn1ncc(-c2cc(F)ccc2Cl)c(O)c1=O [Compound 1.086]	1 (1=0-19% damage)	1 (1=0-19% damage)	1 (1=0-19% damage)	1 (1=0-19% damage)	1 (1=0-19% damage)	1 (1=0-19% damage)	1 (1=0-19% damage)	1 (1=0-19% damage)	1 (1=0-19% damage)	1 (1=0-19% damage)	1 (1=0-19% damage)	1 (1=0-19% damage)
CS(=O)(=O)c1cc(Cl)ccc1-c1cnn(C2CC2)c(=O)c1O [Compound 2.014]	5 (5=80-100% damage)	5 (5=80-100% damage)	5 (5=80-100% damage)	5 (5=80-100% damage)	5 (5=80-100% damage)	5 (5=80-100% damage)	5 (5=80-100% damage)	5 (5=80-100% damage)	5 (5=80-100% damage)	5 (5=80-100% damage)	5 (5=80-100% damage)	5 (5=80-100% damage)
Cn1ncc(-c2cc(Cl)c(Cl)cc2Cl)c(O)c1=O [Compound 1.089]	1 (1=0-19% damage)	1 (1=0-19% damage)	1 (1=0-19% damage)	1 (1=0-19% damage)	1 (1=0-19% damage)	1 (1=0-19% damage)	1 (1=0-19% damage)	1 (1=0-19% damage)	1 (1=0-19% damage)	1 (1=0-19% damage)	1 (1=0-19% damage)	1 (1=0-19% damage)
